Data on four compounds can be found in patent publication US20050113456A1, “Method of decreasing fat deposits and body weight in mammals and birds” (priority 2003, published 2005).

Values joined by “and” are separate entries in the source; they are usually repeats but may differ in a detail not shown here. Equal values may be shown once. Read-outs that look alike come from different tables or passages of the source.

The subject of one series is Cobb broilers. Nature of the series: Safety study in chicken: mortality. The format is in vivo. As to conditions: Day 14 to Day 28, Cobb broilers. The method, then:
(§1) Three dietary treatments were used in this clinical study. […] After mixing, the diets were cold pelleted (65° C.).
Feed and water were available ad libitum. […] Mortality was recorded daily.

A short description of series [1]: Efficacy study in obese young mammals. As to conditions: oral, obese young animals, preliminary results.
Series [2] is described as follows: Efficacy study in chicken: abdominal fat pad and body weight gain. The format is in vivo. As to conditions: for Abdominal fat pad (% BW): day 21 to 42; for Influence on body weight gain (grams): gain during 21 to 42 days of age; for Reduction of fat pads: females; for Decrease of fat pads: males. On the procedure: as §1
The birds were transferred to grower cages on day 15 and a commercial broiler finisher diet (18.9% crude protein) was fed. […] Animals (of uniform body weight) were distributed into groups of 24 birds each. (Additional treatment groups than those shown here were used and dosed differently.) Each of the dietary treatments was then randomly assigned to the treatment groups. The diets were fed from day 21 and the animals were slaughtered on Day 42. Feed and water were available ad libitum throughout the study. Body weights were recorded at weekly intervals.

Series [3] is described as follows: Reduction of body fat by the isomers of salbutamol. As to conditions: in vivo. Further details: species or system mammals and birds.
Series [4] in a line: Efficacy study in obese adult mammals. As to conditions: oral, obese adult animals, preliminary results.
In a further series the target is Beta-3 receptor (Homo sapiens, UniProt P13945). As to conditions: results obtained from BRIDGE PHARMA, Inc.; read-out: Affinity for receptor (Ki) Beta-3; cited from earlier work.
Another series relates to smooth muscle. As to conditions: Yamaguchi et al. 1996; cited from earlier work.
The conditions of series [5]: cited from earlier work; for Reduction of fat pad: Rehfeldt et al. 1997.
How the values of series [6] were obtained:
Three dietary treatments were used in this clinical study. […] Sixty kilograms of each diet was prepared, and the drugs were mixed into the diets according to the standard operating procedures of the test facility. After mixing, the diets were cold pelleted (65° C.). The diets were analyzed for their concentration of test article immediately after the mixing and at predetermined intervals thereafter.
Day-old male broiler (Cobb) chicken were obtained from a commercial hatchery. The birds were raised in battery brooders housed in an environmentally controlled room and they received a commercial broiler starter diet from day 1 to 12. The birds were transferred to grower cages on day 12. On day 14, birds were weighed individually and birds with relatively high or low body weights were discarded. A total of 72 birds (of uniform body weight) were chosen and distributed into test groups so that average weights per test group were nearly equal. […] The diets were fed from day 14 to 28 and the animals were slaughtered on Day 29. Feed and water were available ad libitum. […] Mortality was recorded daily.

Where [7] appears, read: female broilers, 10 ppm in feed.

Sequence of Beta-3 receptor (P13945 whole entry): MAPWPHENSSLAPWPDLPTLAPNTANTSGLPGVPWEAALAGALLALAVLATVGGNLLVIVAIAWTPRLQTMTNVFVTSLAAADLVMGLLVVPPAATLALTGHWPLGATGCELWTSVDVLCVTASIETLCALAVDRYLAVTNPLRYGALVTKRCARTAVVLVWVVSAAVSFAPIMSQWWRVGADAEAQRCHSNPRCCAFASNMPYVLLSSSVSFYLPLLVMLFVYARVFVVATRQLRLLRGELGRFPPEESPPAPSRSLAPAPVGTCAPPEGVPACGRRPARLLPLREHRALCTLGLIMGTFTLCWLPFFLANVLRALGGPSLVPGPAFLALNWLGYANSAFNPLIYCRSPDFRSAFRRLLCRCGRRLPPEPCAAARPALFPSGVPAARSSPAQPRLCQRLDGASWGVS

In general, Ki refers to the equilibrium dissociation constant of an inhibitor or competing ligand from its target. Turning to “α′[(tert-butylamino) methyl]-4-hydroxy-m-xylene-α,α′-diol [R-salbutamol]”, the “Mortality (out of 24 birds)” value in the series on Cobb broilers (5 ppm in feed) is “no fatalities and 0/24”. Further, the “Effect on body fat” value in [1] and in [4] was “significantly decreases body fat” each time. The “Abdominal fat pad (% BW)” value came to 1.79 % BW in [2] (female broilers, 5 ppm in feed); 1.77 % BW in series [2] (setting [7]); 1.64 % BW in [2] (male broilers, 5 ppm in feed); 1.63 % BW in series [2] (male broilers, 10 ppm in feed). The “Influence on body weight gain (grams)” value was 1646 grams in series [2] (female broilers, 5 ppm in feed); 1614 grams in series [2] (setting [7]); 1886 grams in series [2] (male broilers, 5 ppm in feed); 1887 grams in series [2] (male broilers, 10 ppm in feed). Besides, the “Reduction of fat pads” value in series [2] (5 ppm) is 19.4%; in series [2] (10 ppm), 20.3%. Besides, the figures for the “Decrease of fat pads” value in series [2] (5 ppm) and in series [2] (10 ppm) were 17.2% and 17.7%, respectively. Further, the “Reduction of fat content in the bodies of mammals and birds” value in [3] is “potently and stereoselectively reducing the fat content”. The Ki at Beta-3 receptor was more than 10 µM.

Regarding `CC(C)(C)NC[C@@H](O)c1ccc(O)c(CO)c1` [S-salbutamol], the Smooth muscle hyperreactivity result with smooth muscle is “causes smooth muscle hyperreactivity”. Also, the “Reduction of fat content in the bodies of mammals and birds” value in series [3] is recorded as “did not reduce fat”.

Consider `CC(C)(C)NCC(O)c1cc(Cl)c(N)c(Cl)c1` (racemic) [clenbuterol, 4-amino-α-[(tert-butylamino)methyl]-3,5-dichlorobenzyl alcohol], for which, in series [5] (Dalrymple et al. 1984), the “Effect on body weights of broiler chicken” value is given as “increased”. Moreover, in series [5] (chicken, Hamano et al. 1998), the “Effect on abdominal fat weight” value was “could not find any effect”. Also, the “Reduction of abdominal fat pad” value is 8.5% in [5] (female chicken, Dalrymple et al. 1984) and “did not reduce” in [5] (male chicken, Dalrymple et al. 1984). Further, the figures for the “Reduction of fat pad” value in [5] (female chicken) and in series [5] (male chicken) were 8.5% and 6.0%, respectively.

Consider `CC(C)(C)NCC(O)c1ccc(O)c(CO)c1` (racemic) [RS-salbutamol], for which, in the series with Cobb broilers (10 ppm in feed), the “Mortality (out of 24 birds)” value is “caused fatalities and 2/24”. For the same compound, the “Tissue drug concentration” value in series [6] (racemate-treated animals) was determined as 61.3 ng/g. Further, the “Concentration of total salbutamol in liver” value in [6] (treatment 10 ppm RS-salbutamol in feed, Day 14 to Day 28) was 61.3 ng of drug per g of liver.
